Measurements: patent US10138233B2, “Imidazole compounds as modulators of FSHR and uses thereof” (Merck Patent GmbH, priority 2013, dated 2018)
pEC50: −log10 of the molar value.

Biological target: T1, FSHR (Homo sapiens, UniProt P23945)
T1 construct: expressed in transfected cells; host or cells: CHO cells, clone Cho-FSHR-LUC-1-1-43
T1 sequence (P23945 18-695): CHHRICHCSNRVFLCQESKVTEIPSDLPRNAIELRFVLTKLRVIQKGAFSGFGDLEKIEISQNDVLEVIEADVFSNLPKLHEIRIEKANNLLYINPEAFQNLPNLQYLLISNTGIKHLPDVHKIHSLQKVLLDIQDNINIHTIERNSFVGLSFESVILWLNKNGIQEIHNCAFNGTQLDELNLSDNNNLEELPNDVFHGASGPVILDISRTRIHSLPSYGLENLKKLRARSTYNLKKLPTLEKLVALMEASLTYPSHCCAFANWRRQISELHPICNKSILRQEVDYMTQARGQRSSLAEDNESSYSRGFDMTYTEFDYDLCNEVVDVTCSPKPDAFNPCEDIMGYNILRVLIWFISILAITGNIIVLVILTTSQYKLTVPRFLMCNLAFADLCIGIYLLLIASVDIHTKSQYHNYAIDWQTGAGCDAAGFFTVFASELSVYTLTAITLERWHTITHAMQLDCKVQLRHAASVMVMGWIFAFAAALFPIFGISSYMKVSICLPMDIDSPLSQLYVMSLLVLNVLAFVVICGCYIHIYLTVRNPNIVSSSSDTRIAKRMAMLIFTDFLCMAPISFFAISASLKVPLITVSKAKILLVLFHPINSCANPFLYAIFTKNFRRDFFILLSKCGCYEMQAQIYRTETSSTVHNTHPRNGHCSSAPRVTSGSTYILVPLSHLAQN
Assay: EC50 of cyclic AMP production in CHO FSHR cells + EC20 FSH (Assay A)
Type: cell-based
Conditions: CHO-FSHR-LUC cells, in presence of EC20 FSH, cAMP HTRF, 1 h 37° C.
Method: EC50 of cyclic AMP production in CHO FSHR cells+EC20 FSH (Assay A)
2500 Cho-FSHR-LUC-1-1-43 cells were plated per well in 5 μl of phenol red free DMEM/F12+1% FBS. […] Cells were assayed by adding 100 μl of 2×EC20 FSH/IBMX in DMEM/F12+0.1% BSA) by Multidrop to 2 μl of test compound stamped in 384 well plates (compounds are diluted 1:50). […] The compound plate map was as follows: Column 1: 2 μl of DMSO; Column 2: 2 μl of DMSO; Columns 3-12 and 13-24: 2 μl of test compound, diluted 1:4 in 100% DMSO, or 2 μl of FSH, diluted 1:4 in DMEM/F12+0.1% BSA. The starting concentration for FSH was 50 nM (final concentration was 0.5 nM). […] 10 μl of mixed HTRF (CisBio #62AM4PEC) reagents were added per well and incubated at room temperature for 1 h. The plates were read on Envision using the cAMP HTRF—low volume 384 well protocol. […] Values given in percent (%) indicate the percental effect (response) at a certain concentration of agonist relative to the maximum response of the FSH standard.

SMILES	pEC50
COc1cc2c(cc1OC(C)C)-n1c(-c3cn(C)nn3)nc(C(=O)N3CCOCC3(C)C)c1CC2 [Compound 52]	< 5.30
COc1cc2c(cc1OC(C)C)-n1c(-c3[nH]ncc3C)nc(C(=O)N3CCOCC3(C)C)c1CC2 [Compound 54]	5.30 to 6.00
COc1cc2c(cc1CC(C)C)-n1c(-c3cccs3)nc(C(=O)NC3(C)COC3)c1CC2 [Compound 55, 8-Isobutyl-7-methoxy-1-thiophen-2-yl-4,5-dihydro-imidazo[1,5-a]quinoline-3-carboxylic acid (3-methyl-oxetan-3-yl)-amide]	6.00 to 7.00
COc1cc2c(cc1CC(C)C)-n1c(-c3cccs3)nc(C(=O)N3CCOCC34COC4)c1CC2 [Compound 56, (2,8-Dioxa-5-aza-spiro[3.5]non-5-yl)-(8-isobutyl-7-methoxy-1-thiophen-2-yl-4,5-dihydro-imidazo[1,5-a]quinolin-3-yl)-methanone]	> 7.00
COc1cc2c(cc1CC(C)C)-n1c(-c3cccs3)nc(C(=O)N3CCCC34COC4)c1CC2 [Compound 57, (8-Isobutyl-7-methoxy-1-thiophen-2-yl-4,5-dihydro-imidazo[1,5-a]quinolin-3-yl)-(2-oxa-5-aza-spiro[3.4]oct-5-yl)-methanone]	5.30 to 6.00
[2H]C([2H])([2H])N(C(=O)c1nc(-c2cccs2)n2c1CCc1cc(OC)c(CC(C)C)cc1-2)C1(C)COC1 [Compound 58, 8-Isobutyl-7-methoxy-1-thiophen-2-yl-4,5-dihydro-imidazo[1,5-a]quinoline-3-carboxylic acid methyl-d3-(3-methyl-oxetan-3-yl)-amide]	> 7.00
COc1cc2c(cc1OC(C)C)-n1c(-c3sccc3C)nc(C(=O)N3CCOCC3(C)C)c1CC2 [Compound 60]	6.00 to 7.00
COc1cc2c(cc1OC(C)C)-n1c(-c3cn[nH]c3)nc(C(=O)N3CCOCC3(C)C)c1CC2 [Compound 61]	< 5.30
COc1cc2c(cc1OC(C)C)-n1c(-c3ccccc3OC)nc(C(=O)N(C)C(C)(C)C)c1CC2 [Compound 62]	5.30 to 6.00
COc1cc2c(cc1OC(C)C)-n1c(-c3ccc(C)cc3)nc(C(=O)N(C)C(C)(C)C)c1CC2 [Compound 63]	6.00 to 7.00
COc1cc2c(cc1OC(C)C)-n1c(-c3ccc(C#N)cc3)nc(C(=O)N(C)C(C)(C)C)c1CC2 [Compound 64]	5.30 to 6.00
COc1cc2c(cc1OC(C)C)-n1c(-c3cc(Cl)ccc3Cl)nc(C(=O)N(C)C(C)(C)C)c1CC2 [Compound 65]	6.00 to 7.00
COc1cc2c(cc1OC(C)C)-n1c(-c3cccc(F)c3)nc(C(=O)N(C)C(C)(C)C)c1CC2 [Compound 66]	6.00 to 7.00
COc1cc2c(cc1OC(C)C)-n1c(-c3ccccc3Cl)nc(C(=O)N(C)C(C)(C)C)c1CC2 [Compound 67]	6.00 to 7.00
COc1cc2c(cc1OC(C)C)-n1c(-c3cccc(C(F)(F)F)c3)nc(C(=O)N(C)C(C)(C)C)c1CC2 [Compound 68]	6.00 to 7.00
COc1cc2c(cc1OC(C)C)-n1c(-c3cc[nH]n3)nc(C(=O)N3CCOCC3(C)C)c1CC2 [Compound 69]	< 5.30
COc1cc2c(cc1-c1ccn(C)n1)-n1c(-c3ccn(C)c3)nc(C(=O)N3CCOCC3(C)C)c1CC2 [Compound 73, (3,3-Dimethyl-morpholin-4-yl)-[7-methoxy-8-(1-methyl-1H-pyrazol-3-yl)-1-(1-methyl-1H-pyrrol-3-yl)-4,5-dihydro-imidazo[1,5-a]quinolin-3-yl]-methanone]	< 5.30
COC(=O)c1nc(C(=O)N(C)C(C)(C)C)c2n1-c1cc(OC(C)C)c(OC)cc1CC2 [Compound 74, 3-(tert-Butyl-methyl-carbamoyl)-8-isopropoxy-7-methoxy-4,5-dihydro-imidazo[1,5-a]quinoline-1-carboxylic acid methyl ester]	5.30 to 6.00
COc1cc2c(cc1-c1ccn(C)n1)-n1c(-c3ccsc3)nc(C(=O)N(C)C(C)(C)C)c1CC2 [Compound 77, 7-Methoxy-8-(1-methyl-1H-pyrazol-3-yl)-1-thiophen-3-yl-4,5-dihydro-imidazo[1,5-a]quinoline-3-carboxylic acid tert-butyl-methyl-amide]	6.00 to 7.00

SMILES	pEC50
COc1cc2c(cc1NC(=O)C(C)C)-n1c(-c3cccs3)nc(C(=O)N3CCOCC3(C)C)c1CC2 [Compound 78, N-[3-(3,3-Dimethyl-morpholine-4-carbonyl)-7-methoxy-1-thiophen-2-yl-4,5-dihydro-imidazo[1,5-a]quinolin-8-yl]-isobutyramide]	6.00 to 7.00
COc1cc2c(cc1OC(C)C)-n1c(C3=CCOCC3)nc(C(=O)N3CCOCC3(C)C)c1CC2 [Compound 79]	6.00 to 7.00
COc1cc2c(cc1OC(C)C)-n1c(-c3cnn(C4CCC4)c3)nc(C(=O)N3CCOCC3(C)C)c1CC2 [Compound 80]	< 5.30
COc1cc2c(cc1OC(C)C)-n1c(-c3cccc4[nH]ncc34)nc(C(=O)N3CCOCC3(C)C)c1CC2 [Compound 81]	5.30 to 6.00
COCCCc1nc(C(=O)N2CCOCC2(C)C)c2n1-c1cc(OC(C)C)c(OC)cc1CC2 [Compound 82, (3,3-Dimethyl-morpholin-4-yl)-[8-isopropoxy-7-methoxy-1-(3-methoxy-propyl)-4,5-dihydro-imidazo[1,5-a]quinolin-3-yl]-methanone]	< 5.30
COc1cc2c(cc1OC(C)C)-n1c(C3CCCC3)nc(C(=O)N3CCOCC3(C)C)c1CC2 [Compound 83, (1-Cyclopentyl-8-isopropoxy-7-methoxy-4,5-dihydro-imidazo[1,5-a]quinolin-3-yl)-(3,3-dimethyl-morpholin-4-yl)-methanone]	6.00 to 7.00
COc1cc2c(cc1OC(C)C)-n1c(C3CCOCC3)nc(C(=O)N3CCOCC3(C)C)c1CC2 [Compound 84, (3,3-Dimethyl-morpholin-4-yl)-[8-isopropoxy-7-methoxy-1-(tetrahydro-pyran-4-yl)-4,5-dihydro-imidazo[1,5-a]quinolin-3-yl]-methanone]	< 5.30
COc1cc2c(cc1OC(C)C)-n1c(C3CCCCO3)nc(C(=O)N3CCOCC3(C)C)c1CC2 (stereo not shown) [Compound 85, (3,3-Dimethyl-morpholin-4-yl)-[8-isopropoxy-7-methoxy-1-(tetrahydro-pyran-2-yl)-4,5-dihydro-imidazo[1,5-a]quinolin-3-yl]-methanone]	< 5.30
COc1cc2c(cc1OC(C)C)-n1c(C3=CCC(C)CC3)nc(C(=O)N3CCOCC3(C)C)c1CC2 (stereo not shown) [Compound 86]	5.30 to 6.00
COc1cc2c(cc1OC(C)C)-n1c(-c3ccnn3CC(C)C)nc(C(=O)N3CCOCC3(C)C)c1CC2 [Compound 87]	5.30 to 6.00
CCCn1nccc1-c1nc(C(=O)N2CCOCC2(C)C)c2n1-c1cc(OC(C)C)c(OC)cc1CC2 [Compound 88]	6.00 to 7.00
COc1cc2c(cc1OC(C)C)-n1c(-c3cccc4cn[nH]c34)nc(C(=O)N3CCOCC3(C)C)c1CC2 [Compound 89]	5.30 to 6.00
[2H]C([2H])([2H])NC(=O)c1cc2c(cc1OC)CCc1c(C(=O)N(C)C(C)(C)C)nc(-c3cccs3)n1-2 [Compound 90, 7-Methoxy-1-thiophen-2-yl-4,5-dihydro-imidazo[1,5-a]quinoline-3,8-dicarboxylic acid 3-(tert-butyl-methyl-amide) 8-methyl-d3-amide]	5.30 to 6.00
CCCn1nc(C)cc1-c1nc(C(=O)N2CCOCC2(C)C)c2n1-c1cc(OC(C)C)c(OC)cc1CC2 [Compound 91]	5.30 to 6.00
CCn1nccc1-c1nc(C(=O)N2CCOCC2(C)C)c2n1-c1cc(OC(C)C)c(OC)cc1CC2 [Compound 92]	6.00 to 7.00
COc1cc2c(cc1OC(C)C)-n1c(C3=CCCN(C)C3)nc(C(=O)N3CCOCC3(C)C)c1CC2 [Compound 93]	< 5.30
COc1cc2c(cc1CC(C)C)-n1c(C3CCOC3)nc(C(=O)N(C)C(C)(C)C)c1CC2 (stereo not shown) [Compound 94, N-(tert-butyl)-8-isobutyl-7-methoxy-N-methyl-1-(tetrahydrofuran-3-yl)-4,5-dihydroimidazo[1,5-a]quinoline-3-carboxamide]	5.30 to 6.00
COc1cc2c(cc1CC(C)C)-n1c(-c3cc(C)cs3)nc(C(=O)N(C)C(C)(C)C)c1CC2 [Compound 95, 8-Isobutyl-7-methoxy-1-(4-methyl-thiophen-2-yl)-4,5-dihydro-imidazo[1,5-a]quinoline-3-carboxylic acid tert-butyl-methyl-amide]	6.00 to 7.00
